As usually defined, the IC50 is the concentration at which inhibition is half-maximal. A higher IC50 goes with weaker potency in that assay.

The values below come from publication PMC10143825, “ABT-333 (Dasabuvir) Increases Action Potential Duration and Provokes Early Afterdepolarizations in Canine Left Ventricular Cells via Inhibition of IKr” (Pharmaceuticals, 2023).

For this test, the target named is T1, hERG channel (Homo sapiens, UniProt Q12809).
T1 construct: gene KCNH2
The experiment in a line: cell-based.

SMILES strings stand for the structures.

T1 sequence (Q12809 whole entry): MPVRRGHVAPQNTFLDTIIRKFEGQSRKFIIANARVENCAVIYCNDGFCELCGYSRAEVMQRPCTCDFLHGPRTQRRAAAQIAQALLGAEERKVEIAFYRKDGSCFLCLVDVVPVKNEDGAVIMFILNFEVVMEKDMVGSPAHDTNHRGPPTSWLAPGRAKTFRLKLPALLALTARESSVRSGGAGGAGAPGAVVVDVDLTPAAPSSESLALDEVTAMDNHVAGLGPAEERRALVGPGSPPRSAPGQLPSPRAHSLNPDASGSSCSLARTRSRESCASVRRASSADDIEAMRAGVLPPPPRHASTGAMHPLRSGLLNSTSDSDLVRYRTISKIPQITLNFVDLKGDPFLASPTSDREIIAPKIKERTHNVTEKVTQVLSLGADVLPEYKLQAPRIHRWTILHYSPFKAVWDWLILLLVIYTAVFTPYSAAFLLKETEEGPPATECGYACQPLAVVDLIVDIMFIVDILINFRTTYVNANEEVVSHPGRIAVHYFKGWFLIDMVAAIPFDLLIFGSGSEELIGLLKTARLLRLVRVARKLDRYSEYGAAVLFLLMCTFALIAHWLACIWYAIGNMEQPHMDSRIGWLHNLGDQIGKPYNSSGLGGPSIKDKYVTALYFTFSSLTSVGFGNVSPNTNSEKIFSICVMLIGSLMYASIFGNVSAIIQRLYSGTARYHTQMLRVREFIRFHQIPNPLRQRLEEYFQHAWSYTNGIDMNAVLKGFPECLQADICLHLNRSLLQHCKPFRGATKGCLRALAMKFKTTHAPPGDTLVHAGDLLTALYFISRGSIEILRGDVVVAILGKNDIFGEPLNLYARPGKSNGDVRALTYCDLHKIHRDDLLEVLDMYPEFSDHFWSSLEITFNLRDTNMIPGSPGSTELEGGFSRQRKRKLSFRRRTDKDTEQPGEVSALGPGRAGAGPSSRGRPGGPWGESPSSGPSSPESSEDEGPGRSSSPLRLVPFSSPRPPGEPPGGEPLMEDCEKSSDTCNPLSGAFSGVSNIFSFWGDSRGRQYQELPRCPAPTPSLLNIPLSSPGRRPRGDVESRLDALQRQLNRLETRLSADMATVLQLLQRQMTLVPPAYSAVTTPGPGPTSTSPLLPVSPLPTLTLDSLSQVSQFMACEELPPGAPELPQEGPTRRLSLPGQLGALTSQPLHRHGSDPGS

In the case of `COc1c(-c2ccc3cc(NS(C)(=O)=O)ccc3c2)cc(-n2ccc(=O)[nH]c2=O)cc1C(C)(C)C` [ABT-333], inhibition was half-maximal at 3.2 µM (IC50).
